Assay results taken from patent publication US5948792A, “Fluorine-containing 1,4-disubstituted piperidine derivatives” (Banyu Pharmaceutical Co., Ltd., priority 1996, dated 1999).

Key:
Muscarinic M2 receptor = molecular target: T1, Muscarinic M2 receptor (Homo sapiens, UniProt P08172); assay: Inhibition of binding of [3H]-N-methylscopolamine to muscarinic M2 receptor; conditions: CHO cell membranes expressing cloned human receptor; 0.2 nM [3H]-N-methylscopolamine, pH 7.4, 2 hours, 25° C; read-out: Ki M2 (inhibitory effects on binding to muscarinic M2 receptor)
T1 construct: purchased Receptor Biology, Inc; host or cells: CHO cells (membranes)
T1 sequence (P08172 1-466): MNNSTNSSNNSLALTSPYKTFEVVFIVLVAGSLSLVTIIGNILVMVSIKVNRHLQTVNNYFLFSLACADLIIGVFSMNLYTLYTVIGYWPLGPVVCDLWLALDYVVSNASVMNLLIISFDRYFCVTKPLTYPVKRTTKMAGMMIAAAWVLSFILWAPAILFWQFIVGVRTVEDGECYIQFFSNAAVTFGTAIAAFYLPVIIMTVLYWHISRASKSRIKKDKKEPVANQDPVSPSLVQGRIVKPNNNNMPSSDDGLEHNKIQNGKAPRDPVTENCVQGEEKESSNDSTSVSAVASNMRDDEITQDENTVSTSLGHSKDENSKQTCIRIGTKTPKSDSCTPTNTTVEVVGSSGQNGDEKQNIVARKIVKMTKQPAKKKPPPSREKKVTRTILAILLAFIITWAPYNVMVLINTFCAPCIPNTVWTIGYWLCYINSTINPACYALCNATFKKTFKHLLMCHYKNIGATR
Protocol: (§1) Tests on Inhibition of Binding to Muscarinic Receptors
(§2) These tests were performed according to a modification of the method of Hargreaves et al. (Br. J. Pharmacol. 107: 494-501, 1992). Membranes from CHO cells expressing cloned human m1-m5 (Receptor Biology, Inc.) were incubated with 0.2 nM [^3 H]-N-methylscopolamine and each a compound of the present invention to be tested in 0.5 ml of 50 mM Tris-HCl-10 mM MgCl2 -1 mM EDTA (pH 7.4) for 2 hours at 25° C. Free and membrane-bound [^3 H]-N-methylscopolamine were separated by filtration over glass filters (UniFilter-GF/C; Packard Instruments Co., Inc.) using cell harvester (Filtermate™ 196; Packard Instruments Co., Inc.). Then the filter was washed four times with 1 ml of ice-cold Tris-HCl (pH 7.4) and dried at 50° C. After adding a scintillator (Microscinti 0; Packard Instruments Co., Inc.), the radioactivity was counted by a liquid scintillation counter (TopCount™; Packard Instruments Co., Inc.). Non-specific binding was measured in the presence of 1 μM N-methylscopolamine.

Muscarinic M3 receptor [1] = molecular target: T2, Muscarinic M3 receptor (Homo sapiens, UniProt P20309); assay: Inhibition of binding of [3H]-N-methylscopolamine to muscarinic M3 receptor
T2 construct: purchased Receptor Biology, Inc; host or cells: CHO cells (membranes)
T2 sequence (P20309 whole entry): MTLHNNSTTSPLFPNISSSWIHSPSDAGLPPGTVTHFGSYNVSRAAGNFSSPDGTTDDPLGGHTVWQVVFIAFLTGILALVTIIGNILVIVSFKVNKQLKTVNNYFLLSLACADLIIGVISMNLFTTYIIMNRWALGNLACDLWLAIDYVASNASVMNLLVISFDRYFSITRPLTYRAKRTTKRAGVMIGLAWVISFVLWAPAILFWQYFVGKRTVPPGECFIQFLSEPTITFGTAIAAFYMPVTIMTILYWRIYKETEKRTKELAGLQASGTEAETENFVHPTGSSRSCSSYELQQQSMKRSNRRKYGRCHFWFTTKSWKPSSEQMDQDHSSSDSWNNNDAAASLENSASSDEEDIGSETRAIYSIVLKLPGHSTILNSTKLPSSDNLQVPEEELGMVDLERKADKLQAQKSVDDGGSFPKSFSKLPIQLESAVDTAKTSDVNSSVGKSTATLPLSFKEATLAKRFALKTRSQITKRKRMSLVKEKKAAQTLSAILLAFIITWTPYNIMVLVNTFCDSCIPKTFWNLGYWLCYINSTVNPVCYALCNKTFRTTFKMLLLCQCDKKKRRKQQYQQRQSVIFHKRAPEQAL
Protocol: as §1, §2

Muscarinic M3 Receptor [2] = molecular target: T3, Muscarinic M3 Receptor (Rattus norvegicus, UniProt P08483); assay: Bronchodilation in rats (i.v.), inhibition of acetylcholine-induced increase in airway resistance; assay type: in vivo; conditions: iv, 5 min, acetylcholine 50 μg/kg i.v. 5 minutes after test compound, read-out: Inhibition of Airway Contraction ED50 iv
T3 construct: male rats of the Sprague-Dawley strain; from tissue; host or cells: airways of living male Sprague-Dawley rats (in vivo)
T3 sequence (P08483 whole entry): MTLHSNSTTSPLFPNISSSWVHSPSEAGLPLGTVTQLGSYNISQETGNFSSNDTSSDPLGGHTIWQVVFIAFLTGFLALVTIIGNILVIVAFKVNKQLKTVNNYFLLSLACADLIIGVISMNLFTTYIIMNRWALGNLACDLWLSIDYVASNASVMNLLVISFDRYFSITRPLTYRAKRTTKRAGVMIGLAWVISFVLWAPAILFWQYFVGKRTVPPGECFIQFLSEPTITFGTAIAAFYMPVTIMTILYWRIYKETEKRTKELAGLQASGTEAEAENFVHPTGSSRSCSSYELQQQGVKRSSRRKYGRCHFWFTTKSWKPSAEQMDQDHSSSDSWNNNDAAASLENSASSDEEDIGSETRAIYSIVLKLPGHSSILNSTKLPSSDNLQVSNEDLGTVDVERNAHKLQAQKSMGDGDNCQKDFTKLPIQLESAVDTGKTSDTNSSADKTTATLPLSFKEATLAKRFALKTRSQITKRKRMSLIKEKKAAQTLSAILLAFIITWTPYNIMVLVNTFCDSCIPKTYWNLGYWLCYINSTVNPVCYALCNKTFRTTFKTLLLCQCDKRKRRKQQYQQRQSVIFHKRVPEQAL
Protocol: (§3) Tests for Antagonism Against Muscarinic M3 Receptor (in vivo)
1-A) Tests for Bronchodilation in Rats (i.v.).
Eight- to eleven-weeks-old male rats of the Sprague-Dawley strain, weighing 380-420 g, were anesthetized with urethane (750 mg/kg. i.p.) and α-chloralose (37.5 mg/kg, i.p.). The bronchus of each rat was intubated, and the right jugular vein was cannulated for drug administration. […] To evoke an increase in airway resistance, acetylcholine (50 μg/kg, i.v.) was administered to the animals. The acetylcholine-induced airway resistance increase was measured 5 minutes before and 5 minutes after administration of test compound, and the ratio of the airway resistance of the latter to the former was calculated. In controls, isotonic sodium chloride solution was used in place of the test compounds and otherwise identical procedures were repeated, the calculated ratio being set to be 100%.

Muscarinic M3 Receptor [3] = molecular target: T3, Muscarinic M3 Receptor; assay: Bronchodilation in rats (p.o.), inhibition of acetylcholine-induced increase in airway resistance; assay type: in vivo; conditions: po, 1 h, acetylcholine 50 μg/kg i.v. 60 minutes after test compound, read-out: Inhibition of Airway Contraction ED50 po
Protocol: as §3
1-B) Tests for Bronchodilation in Rats (p.o.)
Eight- to eleven-weeks-old male rats of Sprague-Dawley strain weighing 380-420 g were orally administered with a test compound. The rats were treated in the identical manner as in the i.v. test, starting 30 minutes after the administration, and their airway resistance values were measured. The acetylcholine-(50 μg/kg, i.v.) induced airway resistance increase were measured 60 minutes after the administration of test compounds. In controls, isotonic sodium chloride solution was used in place of the test compounds and otherwise identical procedures were repeated, the ratio between the two airway resistance values whereby being set to be 100%.

Muscarinic M3 Receptor [4] = assay: Bronchodilation in dogs (p.o.), methacholine provocation test; assay type: in vivo, dog; conditions: beagle dogs, 1 mg/kg p.o., 4 hours after administration
Protocol: as §3
2) Tests for Bronchodilation in Dogs (p.o.)
Twelve- to twenty-four-months-old male beagle dogs (weighing 10-15 kg) were anesthetized with pentobarbital (30 mg/kg, i.v.) and intubated in their bronchus. Their airway sensitivity to inhaled methacholine were measured at least twice at two-weeks interval, and the dogs showing a reproducible methacholine reaction threshold values^1) ware selected. To those dogs whose methacholine reaction threshold value had been confirmed, the test compounds were orally administered (1 mg/kg). Four hours after the administration, the methacholine provocation test was conducted, and then the methacholine reaction threshold value^2) after administration of the test compound was obtained.
The bronchodilator activity of the test compound was determined following equation: [formula]
The methacholine provocation test was conducted using Astograph TCK-6100H Model (Chest). Methacholine chloride was used as bronchoconstritor, which was diluted with isotonic sodium chloride solution in 10-grade concentration levels starting from 40,000 μg/ml, as 20,000, 10,000, 5,000, 2,500, 1,250, 625, 312.5, 156 and 78 μg/ml. These methacholine aerosols were inhaled to the test animal each for 1 min, starting from the lowest concentration level, and respiration resistance was continuously recorded. The concentration level at which the respiration resistance reached twice the initial value was recorded as the methacholine threshold value.

Q: With `COc1cc(CN2CCC(NC(=O)[C@](O)(c3ccccc3)[C@@H]3CCC(F)(F)C3)CC2)ccc1N` [Example 26, (2R)-N-[1-(4-amino-3-methoxybenzyl)piperidin-4-yl]-2-[(1R)-3,3-difluorocyclopentyl]-2-hydroxy-2-phenylacetamide] as the compound, how does the Ki (Muscarinic M2 receptor) read?
A: 24 µM

Q: And the Ki (Muscarinic M3 receptor [1]; CHO cell membranes expressing cloned human receptor, 0.2 nM [3H]-N-methylscopolamine, pH 7.4, 2 hours, 25° C, read-out: Ki M3 (inhibitory effects on binding to muscarinic M3 receptor))?
A: 0.022 µM

Q: And the “M2/M3 (ratio of binding Ki)” value (Muscarinic M3 receptor [1]; selectivity ratio of Ki values, binding)?
A: 1100

Q: What about the ED50 (Muscarinic M3 Receptor [2]) of the same compound?
A: 0.37 mg/kg

Q: What about the ED50 (Muscarinic M3 Receptor [3]) of the same compound?
A: 0.95 mg/kg

Q: And the “Methacholine Inhalation-inducing Test shift value (after 4 hrs.)” value (Muscarinic M3 Receptor [4])?
A: > 64
